The conditions of series [1]: as described in U.S. Pat. No. 3,728,347; cited from earlier work.
For series [2] the following is noted: as described in U.S. Pat. No. 3,728,347; cited from earlier work. This is another data set of the same source.
For series [3] the following is noted: J. Med. Chem. 16, 301 (1973); cited from earlier work.
The conditions of series [4]: humans; cited from earlier work.
Series [5] deals with morphine analgesia. As to the kind of experiment: Antagonism of morphine analgesia, Haffner method. Type of series: in vivo, male mice dd strain. The note with it: morphine 16 mg/kg subcutaneously. On the procedure: (§1) The dl-KMG-86, d-KMG-86 and l-KMG-86 were all screened for their biological activity by the assays described in the reference J. Med. Chem. 16, 301 (1973). All three compounds were screened for their analgesic activity by the acetic acid induced stretching method of R. Kosta, Fed. Proc., Fed. Amer. Soc. Exp. Biol., 18, 412 (1959). Male albino mice dd strain (18.0-22.0 g.) were used. After the compounds were administered subcutaneously to five groups of animals consisting of ten mice per group, the effective ratio until 60 minutes was examined and the effective dose in 50% of the mice (ED50) was calculated by the Lichfield-Wilcoxin method [J. T. Lichfield and F. Wilcoxin, J. Pharmacol., 96, 99 (1949)]. […] Med. Wochenschr., 55, 731 (1929)], in which ten male mice dd strain per group were used.

The test system of series [6] is acetic acid induced stretching. Nature of the series: Analgesic activity, acetic acid induced stretching method. The series is classed as in vivo, male albino mice dd strain. The note with it: for ED50, Mean Value: 60 min. On the procedure: as §1
Series [7] is described as follows: Morphine analgesia (Haffner method). Type of series: in vivo, male mice dd strain. The conditions noted are these: subcutaneously. As for the experimental part:
as §1

A short description of series [8]: Side effects or toxicity. The conditions noted are these: in vivo.
The mark [9] stands for this setting: stretching method, subcutaneous, effective ratio until 60 minutes, Lichfield-Wilcoxin method.

The values that follow come from patent publication US4024082A, “Analgesics” (priority 1975, dated 1977).

Turning to `Oc1ccc2c(c1)C13CCCCC1N(C2)N(CC1CC1)CC3` (racemic) [dl-KMG-86, dl-N-cyclopropylmethyl-3-hydroxy-9-azamorphinan], the opiate dependence liability entry in series [1] is “lacking opiate dependence liability”. Besides, in series [2], the “analgesic activity compared with morphine” value is recorded as “remarkable analgesic activity as strong as that possessed by morphine”. In series [3], the “activity relative to pentazocine” value is “about twice as active as pentazocine”. Also, the “confirmation in clinical studies of the activity found in mice” value in series [4] is “The activity found in mice was confirmed in clinical studies in humans”. The “Antagonist Dose (AD50)” value in series [5] is on record as 4.70 mg/kg, S. C. In addition, the “ED50, Mean Value” in series [6] (setting [9]) amounted to 1.63 mg/kg.

In the case of `Oc1ccc2c(c1)C13CCCCC1N(C2)N(CC1CC1)CC3` (stereo not drawn) [d-KMG-86, d-N-cyclopropylmethyl-3-hydroxy-9-azamorphinan], the “Antagonist Dose (AD50)” value in series [5] is 20 mg/kg, S. C. In addition, in series [6] (setting [9]), the “ED50, Mean Value” is “ca. 80 mg/kg”.

For orientation: ED50 means the dose at which the effect has come halfway, by size or by number of responders. With `CC(C)=CCN1CCC2(C)c3cc(O)ccc3CC1C2C` (centres unmarked) [Pentazocine, reference compound], the ED50 in series [6] (Mus musculus, sc, 1 h, stretching method, subcutaneous, effective ratio until 60 minutes, Lichfield-Wilcoxin method) was determined as 2.4 mg/kg.

`CN1CC[C@]23c4c5ccc(O)c4O[C@H]2[C@@H](O)C=C[C@H]3[C@H]1C5` [morphine]: the ED100 of morphine in series [7] is 16 mg/kg.

With `Oc1ccc2c(c1)C13CCCCC1N(C2)N(CC1CC1)CC3` (stereo not drawn) [l-KMG-86, l-N-cyclopropylmethyl-3-hydroxy-9-azamorphinan], the “side effects or toxicity” value in series [8] was “no substantial side effects or toxicity”. Also, the “Antagonist Dose (AD50)” value in series [5] was 2.20 mg/kg, S. C. For the same compound, in series [6] (from Table I ED50 (stretching method)), the “potency of l-isomer relative to dl-mixture” value is recorded as “about 3.5 fold”. For the same compound, the “ED50, Mean Value” in series [6] (setting [9]) stood at 0.45 mg/kg.
